In patent US8889591B2, “Herbicidal compositions comprising 4-amino-3-chloro-5-fluoro-6-(4-chloro-2-fluoro-3-methoxyphenyl)pyridine-2-carboxylic acid or a derivative thereof and bromobutide, daimuron, oxaziclomefone or pyributicarb” (Dow Agrosciences LLC, priority 2012, dated 2014):

System: ECHOR
Assay: In-water applied greenhouse weed control, transplanted paddy rice system
Assay type: in vivo, Echinochloa oryzoides (Ard.) Fritsch
Conditions: in-water application
Description: Weed seeds or nutlets of the desired test plant species were planted in puddled soil (mud) prepared by mixing a shredded, non-sterilized mineral soil (50.5 percent silt, 25.5 percent clay, and 24 percent sand, with a pH of about 7.6 and an organic matter content of about 2.9 percent) and water at a 1:1 volumetric ratio. The prepared mud was dispensed in 365 mL aliquots into 16-ounce (oz.) non-perforated plastic pots with a surface area of 86.59 square centimeters (cm^2) leaving a headspace of 3 centimeters (cm) in each pot. Mud was allowed to dry overnight prior to planting or transplanting. Rice seeds were planted in Sun Gro MetroMix® 306 planting mixture, which typically has a pH of 6.0 to 6.8 and an organic matter content of about 30 percent, in plastic plug trays. Seedlings at the second or third leaf stage of growth were transplanted into 840 mL of mud contained in 32-oz. non-perforated plastic pots with a surface area of 86.59 cm^2 4 days prior to herbicide application. The paddy was created by filling the headspace of the pots with 2.5 to 3 cm of water. When required to ensure good germination and healthy plants, a fungicide treatment and/or other chemical or physical treatment was applied. The plants were grown for 4-22 days in a greenhouse with an approximate 14 h photoperiod which was maintained at about 29° C. during the day and 26° C. during the night. Nutrients were added as Osmocote® (19:6:12, N:P:K+ minor nutrients) at 2 g per 16-oz. pot and 4 g per 32-oz. pot. Water was added on a regular basis to maintain the paddy flood, and supplemental lighting was provided with overhead metal halide 1000-Watt lamps as necessary. The plants were employed for testing when they reached the first through fourth true leaf stage.
Treatments consisted of the acid or esters of 4-amino-3-chloro-5-fluoro-6-(4-chloro-2-fluoro-3-methoxy-phenyl)pyridine-2-carboxylic acid (compound A) each formulated as an SC and various herbicidal components alone and in combination. Forms of compound A were applied on an acid equivalent basis.
Other herbicidal components were applied on an active ingredient basis and included daimuron formulated as an EC, bromobutide (technical grade material), and oxaziclomefone (technical grade material).
Treatment requirements for each compound or herbicidal component were calculated based upon the rates being tested, the concentration of active ingredient or acid equivalent in the formulation, an application volume of 2 mL per component per pot, and an application area of 86.59 cm^2 per pot.
For formulated compounds, a measured amount was placed in an individual 100 or 200 mL glass vial and was dissolved in a volume of 1.25% (v/v) Agri-Dex® crop oil concentrate to obtain application solutions.
For technical grade compounds, a weighed amount was placed in an individual 100 to 200 mL glass vial and was dissolved in a volume of acetone to obtain concentrated stock solutions. […] The concentrated stock solutions obtained were diluted with an equivalent volume of an aqueous mixture containing 2.5% (v/v) crop oil concentrate so that the final application solutions contained 1.25% (v/v) crop oil concentrate.
Applications were made by injecting, with a pipetter, appropriate amounts of the application solutions, individually and sequentially, into the aqueous layer of the paddy. Control plants were treated in the same manner with the solvent blank. Applications were made so that all treated plant material received the same concentrations of acetone and crop oil concentrate.
The treated plants and control plants were placed in a greenhouse as described above and water was added as needed to maintain a paddy flood. After approximately 3 weeks the condition of the test plants as compared with that of the untreated plants was determined visually and scored on a scale of 0 to 100 percent where 0 corresponds to no injury or growth inhibition and 100 corresponds to complete kill. […]

COc1c(Cl)ccc(-c2nc(C(=O)OCc3ccccc3)c(Cl)c(N)c2F)c1F [Compound A Benzyl Ester] was tested, and the “Visual Weed Control (%) - 21 DAA ECHOR Obs” value (from here on “Visual Weed Control (%)”) (Compound A Benzyl Ester 8 gae/ha alone) was 8%, the “Visual Weed Control (%)” value (Compound A Benzyl Ester 16 gae/ha alone) was 5% and the “Visual Weed Control (%)” value (Compound A Benzyl Ester 32 gae/ha alone) was 13%.
